Measurements: PMC2213507 (The Journal of Experimental Medicine, 2000)
Peptide text beside a SMILES is read from it.

Each compound was assayed against HLA-A*0201 (Homo sapiens, UniProt P04439, D140Y/D185E/D98H/E176V/E277Q/G131W/G231S/I119V/I121R/I166T/I218V/L300P/L318F/N151K/N90K/P208A/P217A/Q86G/Q94H/R138H/R169H/T345S) (assay: HLA-A*0201 peptide-binding assay).

Question: With `CC(C)C[C@H](NC(=O)[C@H](CO)NC(=O)[C@H](CCCNC(=N)N)NC(=O)[C@@H](NC(=O)[C@H](Cc1ccc(O)cc1)NC(=O)[C@@H](NC(=O)[C@H](CC(=O)O)NC(=O)[C@H](CC(C)C)NC(=O)CN)[C@@H](C)OP(=O)(O)O)C(C)C)C(=O)O` [GLDpTYVRSL] (HELM PEPTIDE1{G.L.D.[C[C@@H](OP(=O)(O)O)[C@H](N[*:1])C(=O)[*:2]].Y.V.R.S.L}$$$$V2.0) as the compound, how does the IC50 read?
Answer: 67 nM

Question: How did the IC50 turn out when `CC(C)C[C@H](NC(=O)[C@H](CO)NC(=O)[C@H](CCCNC(=N)N)NC(=O)[C@@H](NC(=O)[C@H](Cc1ccc(O)cc1)NC(=O)[C@H](COP(=O)(O)O)NC(=O)[C@H](CC(=O)O)NC(=O)[C@H](CC(C)C)NC(=O)CN)C(C)C)C(=O)O` [GLDpSYVRSL] (HELM PEPTIDE1{G.L.D.[O=C([C@H](COP(=O)(O)O)N[*:1])[*:2]].Y.V.R.S.L}$$$$V2.0) was run?
Answer: 58 nM

Question: How did the IC50 turn out when `CC(C)C[C@H](NC(=O)[C@H](CO)NC(=O)[C@H](CCCNC(=N)N)NC(=O)[C@@H](NC(=O)[C@H](Cc1ccc(O)cc1)NC(=O)[C@H](Cc1ccc(OP(=O)(O)O)cc1)NC(=O)[C@H](CC(=O)O)NC(=O)[C@H](CC(C)C)NC(=O)CN)C(C)C)C(=O)O` [GLDpYYVRSL] (HELM PEPTIDE1{G.L.D.[O=C([C@H](Cc1ccc(OP(=O)(O)O)cc1)N[*:1])[*:2]].Y.V.R.S.L}$$$$V2.0) was run?
Answer: 211 nM
